Where no end group is shown, it is not given here.
Legend:
[1] = system: rat cortical neurons; assay: MTT reduction cell viability assay after Aβ exposure; assay type: cell-based; details: for decrease in cell viability: MTT reduction, vs control
Protocol: Aβ25-35 and Aβ1-42 were water-soluble peptides, however, while Aβ25-35, the functional domain of Aβ required for both neurotrophic and neurotoxic effects, was directly added to neuronal cultures after its solubilisation, Aβ1-42 was solved in water and maintained for 24 h at 37 °C before its addition to promote its aggregation. To test the effect of mGluR ligands on cell death induced by Aβ in neuronal cultures, these drugs were added 30 min before the addition of Aβ25-35 and maintained during Aβ exposure. Unless otherwise indicated, all chemicals were dissolved in water.
Cell viability was determined on 96-well plates using an in vitro toxicology assay kit based on a mitochondrial-dependent reaction that transforms 3-[4,5-dimetylthiazol-2-yl]-2,5-diphenyltetrazolium bromide (MTT) into formazan crystals. Briefly, at the end of treatments, cells were incubated in culture medium with MTT solution (5 mg/mL) at 37 °C for 3 h. After incubation, MTT solubilization solution (10% Triton X-100 plus 0.1 M HCl in isopropanol anhydrous) was added into the wells to dissolve formazan crystals and the absorbance of each well was measured at 570 nm and 690 nm, according to the manufacturer’s instructions.

[2] = system: Caspase 3; assay: Caspase 3 activity assay; assay type: cell-based, rat; details: 25 µM Aβ25-35 exposure
Protocol: A commercial kit (Molecular Probes, Barcelona, Spain) was used to determine Caspase 3 activity following the manufacturer’s instructions. Briefly, cortical neurons growth in 24-well plates were exposed to Aβ25-35 or maintained under control conditions. Cells were lysed and lysates centrifuged to clear cell debris. Then, 50 µL of test buffer containing Z-DEVD-Rhodamine 110, DTT, EDTA, PIPES, and CHAPS was added to the supernatants obtained in the proportions indicated by the manufacturer. After 30 min of incubation at room temperature, the […] of each sample was measured on a plate reader (excitation/emission 496/520 nm).

[3] = molecular target: T1, A1R (Rattus norvegicus, UniProt P25099); assay: [3H]DPCPX radioligand binding in intact cortical neurons; details: for Total A1R density (Bmax) increase over control value: 25 µM; for A1R Bmax: [3H]DPCPX saturation binding
T1 construct: endogenous in cells; host or cells: rat primary cortical neurons (intact)
T1 sequence (P25099 1-326): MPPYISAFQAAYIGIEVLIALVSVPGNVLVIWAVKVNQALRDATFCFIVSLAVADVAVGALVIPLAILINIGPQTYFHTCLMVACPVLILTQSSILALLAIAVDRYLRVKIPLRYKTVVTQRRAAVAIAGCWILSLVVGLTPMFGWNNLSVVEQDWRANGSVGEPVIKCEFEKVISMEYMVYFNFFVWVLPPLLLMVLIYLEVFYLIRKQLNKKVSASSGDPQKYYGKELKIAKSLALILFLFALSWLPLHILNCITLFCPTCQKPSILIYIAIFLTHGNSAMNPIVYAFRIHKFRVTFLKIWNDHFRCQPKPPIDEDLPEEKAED
Protocol: Concerning adenosine receptor assessment by radioligand binding, [^3H]DPCPX and [^3H]ZM241385 were employed as selective A1R and A2AR radioligands, as described previously, to determine A1R and A2AR density, respectively. Briefly, primary cortical neurons growth in 24-well plates were washed with serum-free DMEM and pre-incubated with 2 U/mL ADA at 37 °C for 30 min to remove endogenous adenosine. After incubation, the radioligands [^3H]DPCPX (1–20 nM) or [^3H] ZM241385 (1–20 nM) were added in the absence or the presence of CPA in a concentration 10^4 times higher than the radioligand, to obtain non-specific binding to A1R, or 5 mM theophylline, to obtain non-specific binding to A2AR. A specific adenosine uptake inhibitor (1 µM dipyridamole) was added to the reaction mixture to block adenosine receptor ligands’ binding to adenosine transporters. After incubation at 25 °C for 2 h in a final volume of 250 µL, cells were washed with 500 µL of ice-cold buffer and disrupted with 0.2% SDS. Well contents were then transferred to vials and a scintillation liquid mixture was added to measure radioactivity. Two wells from each plate were reserved for protein concentration measurement.

[4] = system: CREB gene expression; assay: CREB gene expression by real-time PCR; assay type: cell-based, rat; details: 25 µM, 24 or 48 h
Protocol: (§1) Total RNA was extracted using an ABI 6100 Nucleic Acid PrepStation according to the manufacturer’s protocol (Applied Biosystems Inc., Foster City, CA, USA). Total RNA from cells was isolated and stored at −80 °C. The quality of isolated RNA was estimated by the ratio A260/A280 and was in the range of 1.9–2.1. RNA integrity was evaluated by agarose gel electrophoresis according to MIQE guidelines using the “bleach gel” method. RNA concentrations were determined from the A260. One microgram of total RNA was reverse transcribed using Applied Biosystems High-Capacity cDNA Archive Kit.
(§2) To assess relative gene expression in neurons, quantitative real-time RT-PCR analysis was performed with an Applied Biosystems Prism 7500 Fast Sequence Detection System using TaqMan® universal PCR master mix according to the manufacturer’s specifications. […] Levels of RNA expression were determined using the 7500 Fast System SDS software version 1.3.1 (Applied Biosystems) according to the 2^−ΔΔCt method. […] The results from three independent repeat assays, performed in different plates each using different cDNA’s from the cultures analyzed, were averaged to produce a single mean quantity value for each mRNA.

[5] = system: CREM gene expression; assay: CREM gene expression by real-time PCR; assay type: cell-based, rat; details: 25 µM, 24 or 48 h
Protocol: as §1, §2

[6] = neurons exposed to 25 µM for 24 h
[7] = neurons exposed to 25 µM for 48 h

caspase 3 activity [2]: increase
Total A1R density (Bmax) increase over control value ([3]; 24 h): 265%
Total A1R density (Bmax) increase over control value ([3]; 48 h): 184%
Kd [3, 6]: 7.51 ± 2.35 nM
A1R Bmax [3, 6]: 545 ± 101 fmol/mg prot
Kd [3, 7]: 5.51 ± 1.33 nM
A1R Bmax [3, 7]: 423 ± 66 fmol/mg prot
Sequence: GSNKGAIIGLM [Aβ25-35]
decrease in cell viability ([1]; 25 µM, 24 h): ~40%
cell viability ([1]; 25 µM, 48 h, MTT): decrease in cell viability
decrease in cell viability ([1]; 50 µM, 24 h): ~40%
cell viability, concentration dependence ([1]; 1, 10, 25 and 50 µM, 24 h, MTT): concentration-dependent decrease in cell viability
CREB gene expression [4]: decrease
CREM gene expression [5]: decrease
